# Results: patent US20260334439A1, “BCAT2 INHIBITORS” (Agios Pharmaceuticals, Inc., priority 2023, published 2026)
# Legend:
# BCAT2 [1] = biological target: T1, BCAT2 (Homo sapiens, UniProt O15382); assay: BCAT2 in vitro enzyme inhibition assay (hBCAT2, glutamate dehydrogenase/diaphorase/resazurin coupled fluorescence read); format: biochemical; conditions: hBCAT2, 1 h preincubation at 25° C., one hour reaction; average where tested multiple times
# T1 sequence (O15382 28-392): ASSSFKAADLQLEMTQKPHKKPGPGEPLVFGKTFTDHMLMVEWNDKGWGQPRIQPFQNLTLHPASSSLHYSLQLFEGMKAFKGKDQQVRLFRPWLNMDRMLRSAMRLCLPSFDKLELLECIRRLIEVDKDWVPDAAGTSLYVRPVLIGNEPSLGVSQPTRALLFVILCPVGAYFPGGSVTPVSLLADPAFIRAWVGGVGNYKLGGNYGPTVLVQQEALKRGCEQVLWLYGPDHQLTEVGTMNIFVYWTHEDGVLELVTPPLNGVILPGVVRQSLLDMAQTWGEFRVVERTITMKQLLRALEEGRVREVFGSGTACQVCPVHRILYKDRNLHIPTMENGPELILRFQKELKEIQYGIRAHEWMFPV
# Procedure, shortened: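 Coupled GDH/diaphorase/resazurin fluorescence (Ex 540/Em 590) read after 1 h reaction at 25 °C, SDS-stopped; enzyme (0.33 μg/mL in mix) first preincubated 1 h with compound, 10-point 3-fold series from 100 μM final, Tris pH 8.0 buffer with NaCl, BSA; technical duplicates, averaged across tests.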
# BCAT2 [2] = biological target: T1, BCAT2; assay: BCAT2 cell inhibition using engineered A549 cells (MUT KO, BCAT1 KO; 13C6-KMV formation by LC-MS/MS); format: cell-based; design: expressed endogenous BCAT2; endogenous in cells; host or cells: A549 cells, MUT knockout and BCAT1 knockout
# Text: Endogenous Methylmalonyl-CoA Mutase (MUT) and Branched Chain Aminotransferase 1 (BCAT1) in A549 cells was knocked out by CRISPR/CAS9 using the targeting system from TransOMIC Technologies. The following guide sequence was cloned into pCLIP-ALL-EFS-Blast vector to target human MUT: […] (SEQ ID NO: 35). The following guide sequence was cloned into pCLIP-ALL-EFS-Puro vector to target human BCAT1: […] (SEQ ID NO: 36). The resulting plasmids were co-transfected into 293T cells with VSV-G, P-PEX, and Fugene-6. Lentivirus was harvested and A549 cells were first transduced with lentivirus targeting MUT and polybrene. After genetic selection with blasticidin clonal selection was performed and validated via western blot analysis to confirm MUT was no longer expressed. These MUT KO cells were then transduced with lentivirus targeting BCAT1 and polybrene. After selection with puromycin clonal selection was performed and clones were validated via western blot analysis to confirm BCAT1 was no longer expressed in these cells. The result was an engineered A549 cell line that expressed endogenous BCAT2.
# For KMV cell assays, on day 1, 25,000 cells/100 μL EMEM (10% FBS) were seeded in each well of a 96-well plate. On day 2, medium was replaced with 50 μL fresh EMEM (10% dialyzed FBS) containing 2× the assay concentration of experimental compound. After 15 minutes, 50 μL of 800 uM ^15N,^13C6-Isoleucine in EMEM (10% dialyzed FBS) was added to each well and incubated for 24 hours. On day 3, 50 μL of media from each well was collected and transferred to another 96-well plate for ^13C6-3-Methyl-2-Oxopentanoic Acid (KMV) analysis via LC-MS/MS. In the remaining assay wells 50 μL of Promega Glo CTG reagent was added and luminescence was measured as a cell viability readout.
# For LC-MS/MS analysis 5 μL of cell assay media from each well was transferred to a 96-well plate and 45 μL of ACN:0.1% NaOH (50:50, v/v)^+0.20 nM d8-KMV was added and mixed on a shaker. 15 μL was transferred to a new 96-well plate and 15 μL of 10 mg/mL PFBHA solution was added and mixed on the shaker. The reaction was placed on ice for 30 minutes and quenched with 10 μL of ACN: Acetone (50:50, v/v) on a shaker. The resulting mixture was diluted with 100 μL of ACN:0.1% NaOH (50:50, v/v) on a shaker. 10 μL of sample were injected on the Shimadzu 20AD LC-MS/MS to quantify ^13C6-KMV.
# Where a compound was tested multiple times, the average value of the tests is reported.
# [3] = read-out: BCAT2 Cell Inhibition (IC50), engineered A549 cells, 24 hours, 13C6-KMV in media, average where tested multiple times
SMILES,IC50 (BCAT2 [1]),IC50 (BCAT2 [2]; [3]),IC50 (BCAT2 [2])
"COc1cccc(F)c1C(=O)N[C@H]1CCC[C@@H](n2c(-c3ccccc3F)nc3cnc(-c4nc[nH]n4)cc32)C1 [Example 2, 2-fluoro-N-((1S,3R)-3-(2-(2-fluorophenyl)-6-(1H-1,2,4-triazol-3-yl)-1H-imidazo[4,5-c]pyridin-1-yl)cyclohexyl)-6-methoxybenzamide]",< 100 nM,> 1000 nM,
"O=C1c2cc(Cl)ccc2OCN1[C@H]1CCC[C@@H](n2c(-c3ccccc3F)nc3cnc(-c4nc[nH]n4)cc32)C1 [Example 202, 6-chloro-3-((1S,3R)-3-(2-(2-fluorophenyl)-6-(1H-1,2,4-triazol-3-yl)-1H-imidazo[4,5-c]pyridin-1-yl)cyclohexyl)-2,3-dihydro-4H-benzo[e][1,3]oxazin-4-one]",< 100 nM,,< 100 nM
"O=C(N[C@H]1CCC[C@@H](n2c(-c3c(O)cccc3F)nc3ccc(-c4nc[nH]n4)cc32)C1)c1cc(Cl)ccn1 [Example 227, 4-chloro-N-((1S,3R)-3-(2-(2-fluoro-6-hydroxyphenyl)-6-(1H-1,2,4-triazol-3-yl)-1H-benzo[d]imidazol-1-l)cyclohexyl)picolin-amide]",< 100 nM,,100 to 500 nM
"O=C1c2cc(F)ccc2CN1[C@H]1CCC[C@@H](n2c(-c3ccccc3OCCO)nc3cnc(-c4nc[nH]n4)cc32)C1 [Example 173, 6-fluoro-2-((1S,3R)-3-(2-(2-(2-hydroxyethoxy)phenyl)-6-(1H-1,2,4-triazol-3-yl)-1H-imidazo[4,5-c]pyridin-1-yl)cyclohexyl)isoindolin-1-one]",< 100 nM,,< 100 nM
"O=C1c2cc(F)ccc2CN1[C@H]1CCC[C@@H](n2c(-c3c(O)cccc3F)nc3cnc(-c4nc[nH]n4)cc32)C1 [Example 179, 6-fluoro-2-((1S,3R)-3-(2-(2-fluoro-6-hydroxyphenyl)-6-(1H-1,2,4-triazol-3-yl)-1H-imidazo[4,5-c]pyridin-1-yl)cyclohexyl)isoindolin-1-one]",< 100 nM,,< 100 nM
"O=C(N[C@H]1CCC[C@@H](n2c(-c3ccccc3F)nc3cnc(-c4nc[nH]n4)cc32)C1)c1ccccc1Cl [Example 3, 2-chloro-N-((1S,3R)-3-(2-(2-fluorophenyl)-6-(1H-1,2,4-triazol-3-yl)-1H-imidazo[4,5-c]pyridin-1-yl)cyclohexyl)benzamide]",< 100 nM,,100 to 500 nM
"N#Cc1ccccc1-c1nc2ccc(-c3ncccn3)cc2n1[C@@H]1CCC[C@H](N2Cc3ccc(F)cc3C2=O)C1 [Example 239, 2-(1-((1R,3S)-3-(6-fluoro-1-oxoisoindolin-2-yl)cyclohexyl)-6-(pyrimidin-2-yl)-1H-benzo[d]imidazol-2-yl)benzonitrile]",< 100 nM,,< 100 nM
"CCN(C)c1nc2cnc(-c3nc[nH]n3)cc2n1[C@@H]1CCC[C@H](NC(=O)c2cc(Cl)ccn2)C1 [Example 21, 4-chloro-N-((1S,3R)-3-(2-(ethyl(methyl)amino)-6-(1H-1,2,4-triazol-3-yl)-1H-imidazo[4,5-c]pyridin-1-yl)cyclohexyl)picolinamide]",100 to 500 nM,> 1000 nM,
"O=C(N[C@H]1CCC[C@@H](n2c(-c3ccccc3F)nc3cnc(-c4nc[nH]n4)cc32)C1)c1cc(Cl)ccn1 [Example 7, 4-chloro-N-((1S,3R)-3-(2-(2-fluorophenyl)-6-(1H-1,2,4-triazol-3-yl)-1H-imidazo[4,5-c]pyridin-1-yl)cyclohexyl)picolinamide]",< 100 nM,,< 100 nM
"O=C1c2c(ccc(F)c2F)CN1[C@H]1CCC[C@@H](n2c(-c3ccccc3F)nc3cnc(-c4nc[nH]n4)cc32)C1 [Example 178, 6,7-difluoro-2-((1S,3R)-3-(2-(2-fluorophenyl)-6-(1H-1,2,4-triazol-3-yl)-1H-imidazo[4,5-c]pyridin-1-yl)cyclohexyl)isoindolin-1-one]",< 100 nM,,< 100 nM
"CC(C)Cc1nc2ccc(-c3ncccn3)cc2n1[C@@H]1CCC[C@H](NC(=O)c2cc(Cl)ccn2)[C@H]1O [Example 219, 4-chloro-N-((1S,2R,3R)-2-hydroxy-3-(2-isobutyl-6-(pyrim-idin-2-yl)-1H-benzo[d]imidazol-1-yl)cyclohexyl)picolinamide]",< 100 nM,,100 to 500 nM
O=C(N[C@H]1CCC[C@@H](n2c(-c3ccccc3OC(F)F)nc3cnc(-c4nc[nH]n4)cc32)C1)c1cc(F)ccn1 [compound 30],< 100 nM,,< 100 nM
"CO[C@H]1C[C@H](NC(=O)c2cc(F)ccn2)C[C@H](n2c(-c3ccccc3F)nc3ccc(-c4nc[nH]n4)cc32)C1 [Example 221, 4-fluoro-N-((1S,3R,5R)-3-(2-(2-fluorophenyl)-6-(1H-1,2,4-triazol-3-yl)-1H-benzo[d]imid-azol-1-yl)-5-methoxycyclohex-yl)picolinamide]",< 100 nM,> 1000 nM,
"O=C(N[C@H]1CCC[C@@H](n2c(-c3ccccc3F)nc3cnc(-c4nc[nH]n4)cc32)C1)c1cc(Cl)ccc1OC(F)(F)F [Example 4, 5-chloro-N-((1S,3R)-3-(2-(2-fluorophenyl)-6-(1H-1,2,4-triazol-3-yl)-1H-imidazo[4,5-c]pyridin-1-yl)cyclohexyl)-2-(trifluoromethoxy)benzamide]",< 100 nM,,500 to 1000 nM
"O=C1c2cc(F)ccc2CN1[C@H]1CCC[C@@H](n2c(-c3ncccc3F)nc3cnc(-c4nc[nH]n4)cc32)C1 [Example 170, 6-fluoro-2-((1S,3R)-3-(2-(3-fluoropyridin-2-yl)-6-(1H-1,2,4-triazol-3-yl)-1H-imidazo[4,5-c]pyridin-1-yl)cyclohexyl)isoindolin-1-one]",< 100 nM,,< 100 nM
O=C1c2cc(F)ccc2OCN1[C@H]1CCC[C@@H](n2c(-c3ccccc3OC(F)F)nc3cnc(-c4nc[nH]n4)cc32)C1 [compound 211],< 100 nM,,< 100 nM
"CC(C)(O)COc1ccc(Cl)cc1C(=O)N[C@H]1CCC[C@@H](n2c(-c3ccccc3F)nc3cnc(-n4nccn4)cc32)C1 [Example 71, 5-chloro-N-((1S,3R)-3-(2-(2-fluorophenyl)-6-(2H-1,2,3-triazol-2-yl)-1H-imidazo[4,5-c]pyridin-1-yl)cyclohexyl)-2-(2-hydroxy-2-methylpropoxy)benzamide]",< 100 nM,,< 100 nM
"O=C1c2ccc(F)cc2C(=O)N1[C@H]1CCC[C@@H](n2c(-c3ccccc3F)nc3cnc(-c4nc[nH]n4)cc32)C1 [Example 182, 5-fluoro-2-((1S,3R)-3-(2-(2-fluorophenyl)-6-(1H-1,2,4-triazol-3-yl)-1H-imidazo[4,5-c]pyridin-1-yl)cyclohexyl)isoindoline-1,3-dione]",< 100 nM,,< 100 nM
"O=C1c2cc(F)ccc2CN1[C@H]1CCC[C@@H](n2c(-c3ccccc3F)nc3cnc(-n4nccn4)cc32)[C@@H]1O [Example 185, 6-fluoro-2-((1S,2S,3R)-3-(2-(2-fluorophenyl)-6-(2H-1,2,3-triazol-2-yl)-1H-imidazo[4,5-c]pyridin-1-yl)-2-hydroxycyclohexyl)isoindolin-1-one]",< 100 nM,,< 100 nM
O=C(N[C@H]1CCC[C@@H](n2c(-c3ccccc3F)nc3cnc(-c4nc[nH]n4)cc32)C1)c1cc(C(F)F)ccn1 [compound 100],< 100 nM,,< 100 nM
